Measured values from patent US9539261B2, “Methods and compositions for stimulating neurogenesis and inhibiting neuronal degeneration” (Neuronascent, Inc., priority 2005, dated 2017).

Tests used:
mature neurons [1] = test: inhibition of beta amyloid peptide toxicity in mature neurons; assay type: cell-based, human
Description: In measuring the ability of inhibiting apoptosis, mature neurons (3-4 weeks following initiation of differentiation) were treated with staurosporine to induce apoptosis. A low concentration of staurosporine (10-100 nM) or beta amyloid 1-42 peptide at 1-10 μM or peptide beta amyloid 25-35 at 10-75 μM concentration was used to stimulate apoptosis. At the same time as treating with staurosporine, the neurons were treated with vehicle or one of the test agents. […] Each compound's inhibitory ability was compared with vehicle and staurosporine.
Necrosis of the mature neurons was initiated using beta amyloid 1-42 peptide at 1-10 μM or peptide beta amyloid 25-35 at 10-75 μM concentration. This synthetic peptide was of the same length naturally found in AD brain. Because lactate dehydrogenase (LDH) is released from cells when the plasma membrane is impaired, the cell loss was quantified by the amount of LDH released into the media following a 24-48 hr treatment. The ability of neurogenic agents to reduce the LDH release induced by beta amyloid, versus vehicle control was used as the measurement of inhibition of neuron degeneration.

[2] = system: human neuronal progenitors cells; test: in vitro neurogenesis test (MAP-2 staining, neuron number); assay type: cell-based; settings: MAP-2 staining on day 11; human neuronal progenitors in differentiation media
Description: The in vitro neurogenesis test was performed using human neuronal progenitors cells. By way of background, the human neuronal progenitor cells can be cultured in media and have the potential to produce mature functional neurons. The neurogenesis factor in the culture media can promote the number of the progenitor cells which differentiate into neurons. Indeed, it is a widely accepted in vitro model to test a chemical's neurogenetic property.
Cells were obtained as human neuronal progenitors from a commercial source and were grown for up to three passages or at any time differentiated to potentially produce mature functional neurons in culture. Following two passages to expand the cells, progenitors were seeded into multi-well microplates and the media were changed to differentiation media (minus serum and mitogen). Within 2 hrs of this media change, a vehicle, positive control or test compound were added to each well. Also, they were added with every further media change (50% volume change every other day). Control wells contained cells and vehicle (0.2% DMSO in DMEM/F12). […]
The cells were stained using MAP-2, a neuronal marker, on day 11. Then, each test compound was assessed for the ability to promote an increase in neuron number and compared with the positive control, leukemia inhibitory factor (LIF).

mature neurons [3] = test: LDH assay of neuron degeneration due to hydrogen peroxide toxicity; assay type: cell-based, human; settings: hydrogen peroxide for 8 hrs, vehicle control = 0% inhibition, n = 5 wells

## 4-Benzo-8-aza-bicyclo[3.2.1]oct-3-yl)-3-(2-chloro-phenyl)-thiourea
Mature neurons [1]
  % Inhibition of beta amyloid peptide toxicity: 68%

## COCCN(Cc1cc2ccc(C)c(C)c2nc1Cl)C(=O)Nc1ccccc1OC [1-(2-Chloro-7,8-dimethyl-quinolin-3-ylmethyl)-1-(2-methoxy-ethyl)-3-(2-methoxy-phenyl)-urea]
[2]
  increase in the neuron numbers compared with the vehicle control, % of Control: 132 % of Control

## COc1ccccc1NC(=S)N1CCCN(c2nc3cc(C)cc(C)c3cc2C#N)CC1 [4-(3-Cyano-5,7-dimethyl-quinolin-2-yl)-[1,4]diazepane-1-carbothioic acid (2-methoxy-phenyl)-amide]
[2]
  increase in the neuron numbers compared with the vehicle control, % of Control: 110 % of Control
Mature neurons [3]
  % Inhibition of neuron degeneration due to hydrogen peroxide toxicity: 50%
Mature neurons [1]
  % Inhibition of beta amyloid peptide toxicity: 84%
